# Assay results: a melting point compilation (Tetko et al.; mined from patent text by program, amines drawn as free bases though some values may be those of a salt)
row,melting point,Compound
1,117 °C,CCOC(=O)NNC(=S)NC
2,66.5 to 67.5 °C,COC(=O)C(F)(F)C1(C(F)(F)C(=O)OC)OCCO1
3,117 to 119 °C,CC(Oc1ccc(CCNCC(O)COc2ccccc2)cc1)C(N)=O (configuration not stated)
4,140 to 144 °C,Nc1c(Cl)cc(C(=CC(=O)N2CCOCC2)c2ccc(Cl)cc2)cc1Cl
5,191 to 192 °C,Cn1c(-c2ccccc2F)c2ccsc2nc1=O
6,214 to 216 °C,CC(=NO)C1CC(Cn2ccnc2)(c2ccc(Cl)cc2)N(C)O1 (configuration not stated)
7,96 to 98 °C,C1=C(c2ccccc2)CC(CN2CCN(c3ccccn3)CC2)CC1 (configuration not stated)
8,227 to 230 °C,Cc1ccc(Sc2cncc3sc(C=NOCC(=O)O)cc23)cc1
9,191 to 193 °C,Cc1ccc(-c2c(NS(=O)(=O)c3ccc(C(C)(C)C)cc3)ncnc2OCCOc2ncc(C=O)cn2)cc1
10,223 to 225 °C,O=C(Nc1ccc2cc(CN3CCCC3)cnc2c1)c1ccc(-c2ccc(Cl)cc2)nc1
11,109 °C,Cc1cc(OC(F)(F)C(Cl)Cl)c([N+](=O)[O-])cc1S(=O)(=O)C=CC#N
12,197 to 198 °C,O=C(O)C/C=C/CC(=O)O
13,145 to 153 °C,COc1cc2c(c(C(=O)O)c1OC)CCN(Cc1ccccc1)CC2c1ccccc1 (configuration not stated)
14,127 to 129 °C,Cc1cc(CNc2cccc(C(=O)O)c2C(=O)O)oc1C
15,207 to 210 °C,CN(C)C=Nc1nc(=O)n(S(=O)(=O)c2ccc(Cl)cc2)cc1F
16,143 °C,CCCCC(CC)COc1ccc(-n2c(C)cc(=O)cc2C)cc1 (configuration not stated)
17,204 to 207 °C,NC(=O)c1cn(Cc2ccccc2)c(CO)n1
18,230 to 232 °C,C=CCC(CC=C)(CC=C)c1ccc(-c2nc3cc4c(cc3n2CCC)C(=N)NC4=N)cc1
19,68 to 72 °C,CCOC(=O)c1c(C)nc(NN=C(C)C)c2nnn(CC)c12
20,68 to 69 °C,Cc1cc2c(c(OCC(=O)c3ccc(C(C)C)cc3)c1)CCC2
21,186 to 188 °C,COc1cc2ncnc(N3CCC(C(C)(O)CN4CCC(C)NS4(=O)=O)CC3)c2cc1OC (configuration not stated)
22,98 to 102 °C,CC1CC(=O)c2cc(Cl)cc(Cl)c2O1 (configuration not stated)
23,183 to 184 °C,COc1ccc(C2(CCCCl)S(=O)(=O)CCCS2(=O)=O)cc1OC
24,142 to 145 °C,CCN1CCC(=O)N(c2cc(Cl)ccc2C)C1=S
25,141 to 143 °C,CCOC(=O)c1cn(-c2nccs2)c2nc(Cl)cc(NCc3ccccc3)c2c1=O

row,melting point,Compound
1,127 to 129 °C,C/C(=C(\C#N)C(=S)/N=C/N(C)C)N1CCCN(c2ccc3c(c2)OCCO3)CC1
2,154 to 156 °C,O=C1NCCc2ccc(OCCCCN3CCN(c4cccc5c4OCCC5)CC3)nc2N1
3,178 to 179 °C,C=C(CN(C)C)C(O)c1ncc2c(c1O)COC2(C)c1ccccc1 (configuration not stated)
4,54 to 56 °C,CC1CC(=O)NN=C1c1ccc(NC(=O)CCNCC(O)COc2ccc(CCOCC3CC3)cc2)cc1 (configuration not stated)
5,174 °C,O=C(Nc1ccccc1Nc1ccccc1)N[C@@H](Cc1ccc(NC(=O)c2c(Cl)cccc2Cl)cc1)C(=O)O
6,177 to 178 °C,CONC(=O)Cc1ccccc1Nc1c(Cl)cccc1Cl
7,97 to 98 °C,COC(=O)c1cc(C)nn1-c1ncc(Cl)cc1Cl
8,258 °C,CNCC1=C(C#N)C(c2cccc(C#N)c2Br)c2c[nH]nc2N1 (configuration not stated)
9,210 to 215 °C,COC(=O)c1nsc(NC=O)n1
10,107 to 108 °C,N#Cc1c(Cl)c(C(F)(F)F)n(CCl)c1-c1ccc(Cl)cc1
11,91 to 92 °C,C=CCOC(=O)NCC(=N)NO
12,173 to 175 °C,COc1ccc(C2(C)Cc3cc(OCC(=O)O)c(Cl)c(Cl)c3C2=O)cc1 (configuration not stated)
13,107 to 109 °C,O=C(CNS(=O)(=O)c1ccc2ccccc2c1)NCCNC(=O)C1CCN(c2ccncc2)CC1
14,58 to 60 °C,Cc1cc2c(cc1N1CCCCCC1)OC(=O)C2C (configuration not stated)
15,107 to 108 °C,CCc1nc2c(c(=O)n(C)c(=O)n2C)n1CCCOc1ccccc1
16,> 260 °C,N#Cc1cnc2cc3cc(O)c(O)cc3cc2c1Nc1ccc(Cl)cc1Cl
17,156 to 161 °C,"CC(N=Cc1ccc(O)cc1)c1ccc(Br)cc1 (single isomer, unassigned; (-))"
18,224 to 226 °C,Cc1cc(NC(=O)NC(=O)c2ccccc2Cl)cc(C)c1Oc1ccc(Cl)c2c1CCCC2
19,130 to 131 °C,CCOC(=O)Cc1nc(-c2ccc(Cl)c(Cl)c2)oc1-c1ccoc1
20,78 to 80 °C,O=C(c1ccc2c(c1)OCCOCCOCCOCCOCCO2)c1ccccn1
21,174 to 177 °C,CCc1cn(C2CC(OCc3ccccc3)C(CNC(=O)Cc3c(Cl)cccc3Cl)O2)c(=O)[nH]c1=O (configuration not stated)
22,125 to 130 °C,CCCCc1oc2ccccc2c1C(=O)NCc1ccc2c(Br)c(OC(Cc3ccccc3)C(=O)O)ccc2c1 (configuration not stated)
23,120 to 121 °C,O=c1c(O)c(-c2ccc(OCc3ccccc3)c(OCc3ccccc3)c2)oc2cc(OCc3ccccc3)ccc12
24,208 to 209 °C,O=S1(=O)Oc2ccccc2Nc2ncccc21
25,169 to 170 °C,CC1CCN(C(=O)[C@H]2CC=CC[C@@H]2NC(=O)C(F)(F)F)CC1

row,melting point,Compound
1,122 to 124 °C,CCc1cc2c(c(CC)n1)CCC(=O)N2Cc1ccc(Oc2ccccc2CC(=O)O)cc1
2,144 to 146 °C,Cc1ccc(CC2CNC(=O)O2)cc1 (configuration not stated)
3,158 to 160 °C,O=C(NCc1ccc(I)cc1Cl)C1CC1
4,112 °C,CCCC(=O)OCC(=O)C1C(C)CC2C3=C(C(O)CC21C)C1(C)C=CC(=O)C=C1C(F)C3 (configuration not stated)
5,188 to 191 °C,Cc1cccc(Nc2cc(Cl)nc(SCC(N)=O)n2)c1C
6,157 °C,O=C(O)[C@H]1CC(=O)N(c2ccc(OCc3cccc(F)c3)cc2)C1
7,97.8 °C,CC(=O)Nc1cc(C(=O)c2ccccc2)ccc1[N+](=O)[O-]
8,169 to 170 °C,COc1nc2cc(C)c(Cl)c(N)c2nc1OC
9,81.5 to 83 °C,COc1ccc(S)c(Cl)c1Cl
10,86 °C,CCCC(c1ccc(C(=O)O)cc1)N(CCC)c1nc(-c2ccc(Cl)cc2Cl)c(C)s1 (configuration not stated)
11,83 to 85 °C,CC(C)C(=O)C(C#N)=C(O)c1ccc(C(F)(F)F)cc1[N+](=O)[O-]
12,50.5 to 52.5 °C,COC(=O)OCCNC(=O)C(F)(F)Cc1c[nH]c([N+](=O)[O-])n1
13,243 °C,Cc1c(-c2ccccc2)oc2cc(NC(=O)C(=O)O)ccc2c1=O
14,141 to 142 °C,CSc1ccc(NC2=C(C#N)CSC2)c([N+](=O)[O-])c1
15,186 to 188 °C,O=C(O)CC1CCN(Cc2ccccc2)C1c1c(Cl)cccc1Cl (configuration not stated)
16,115 to 117 °C,COC(=O)CCCCCNC(=O)/C=C/C=C/c1ccccc1[N+](=O)[O-]
17,110 to 120 °C,COCCc1nc2c(N)nc(C)c(C)c2n1NC1CCOCC1
18,214 to 215 °C,COc1cc(-n2cnc3cc(-c4ccc(Cl)cc4)sc3c2=O)ccc1OCCN1CCCC1
19,97 to 102 °C,CCOC(=O)CSc1nc(Cl)cc(Nc2ccc(F)cc2)n1
20,136 to 137 °C,CCCNc1nc(C#N)c(C#N)nc1-c1ccccc1
21,268 to 270 °C,CCn1c(=O)[nH]c2cnc(-c3ccccc3)nc21
22,98 to 100 °C,COc1ccc(OC2COc3ccc(OCc4ccccc4)cc3C2=O)cc1 (configuration not stated)
23,158 to 159 °C,O=C(O)CCCc1ccc(S(=O)(=O)Nc2ccccc2)cn1
24,79 to 81.5 °C,COC(=O)Cc1nc(-c2ccc(OC)cc2)c(-c2ccc(OC)cc2)s1
25,46 to 48 °C,Nc1ccccc1C(=O)C1CC1

row,melting point,Compound
1,291 to 300 °C,Cc1cccc(Cl)c1NS(=O)(=O)c1n[nH]c(NC=O)n1
2,139 to 140 °C,CC(=O)Nc1nc(Cl)c2ncn(COC(COC(C)=O)COC(C)=O)c2n1
3,160 to 161 °C,CC(C)Oc1cc(-n2nc(C(F)(F)F)[nH]c2=O)c(Cl)cc1Cl
4,106 to 109 °C,N#CCCSCc1nccc(N)n1
5,143 to 144 °C,COc1cc(OC)c2c(=O)c(OCCOc3ccc(C(C)=O)cc3)c(-c3ccc(OC)c(OC)c3)oc2c1
6,210 to 211 °C,COc1cc(Nc2nccc(-c3sc(-c4cccnc4)nc3C)n2)cc(OC)c1OC
7,92 to 94 °C,Nc1cccc(-c2cccc3c2/C(=C/c2ccc[nH]2)C(=O)N3)c1
8,347 to 349 °C,O=c1[nH]c2cc(Cl)c(Cl)cc2c(O)c1-c1ccccc1
9,147 °C,c1ccc2c(c1)OCC(CN1CCC(CNc3nc4cnccc4s3)CC1)O2 (configuration not stated)
10,116 °C,Cn1c(-c2ccccc2)c(CCCl)sc1=S
11,247 to 248 °C,Cc1c(F)cc(C(C)(C)C)c(O)c1-c1nc2ccc(F)cc2c(=O)[nH]1
12,172 to 175 °C,Cc1ccc(C(=O)n2c(C)c(C(C)C(=O)O)c3cc4c(cc32)OCO4)cc1 (configuration not stated)
13,111 to 112 °C,CSc1ccc([N+](=O)[O-])cn1
14,107 to 108 °C,COc1cc2c(c(OC)c1OC)CCC(Br)C2=O (configuration not stated)
15,231 °C,CCOC(=O)Cn1c2c(n(Cc3ccccc3)c(=O)c1=O)CCC1=C2C=C(N)CC1
16,242 to 245 °C,NC(=O)c1c2ccsc2nc2c1c1ccccc1n2Cc1ccccc1
17,157 °C,CC(=O)Nc1ccc([N+](=O)[O-])cc1OCC(O)CN1C(=O)CCC1=O (configuration not stated)
18,206 to 209 °C,CS(=O)(=O)c1ccc(-c2[nH]c(Br)c(Cl)c2-c2ccc(F)cc2)cc1
19,108 to 111 °C,C=CCN1CCN(c2nc3cccccc-3n2)CC1
20,141 to 142 °C,CCOC(=O)c1c(Nc2cc(F)ccc2N)sc2ccccc12
21,109 to 110 °C,O=C(O)CCc1cn(Cc2ccc(OCc3ccccn3)cc2)cc1-c1ccccc1
22,64 to 66 °C,CC(C)CCC1(c2ccccc2)CC(O)=C(Sc2ccccc2C(C)C)C(=O)O1 (configuration not stated)

row,Compound,melting point
1,CN1C(=O)C(C(=O)Nc2ccc(Oc3nc4ccc(Cl)cc4s3)cc2)C(=O)N(C)C1=S,213 to 215 °C
2,COC(=O)c1cc(C)c(NC(=O)c2cc(C(F)(F)F)nn2-c2ncccc2Cl)c(C(=O)NC(C)C)c1,199 to 200 °C
3,CCCCCCC(C)(C)c1cc(OC)c(C2=C[C@@]3(C)CC[C@@H]2C3(C)C)c(OC)c1,32 to 33 °C
4,[N-]=[N+]=NCCc1c[nH]c(=O)[nH]c1=O,230 to 235 °C
5,CN1C2CCC1CC(O)(c1ccc(Cl)c(Cl)c1)C2 (configuration not stated),153 to 154 °C
